Assay results reported in patent US10543162B2 (Rutgers, The State University of New Jersey, priority 2015, dated 2020).

Key:
[1] = Dienol (4) Log P determination by reverse-phase HPLC; assay type: physicochemical; conditions: for chromatographic logP: from HPLC log kw via calibration curve of reference samples' published Log Po,w, read-out: Calculated Log P Values; for Calculated kw: retention factor at 100% buffer, extrapolated from HPLC retention factors at MeOH:buffer 45:55→60:40, 25° C.
Method: Log P, partitioning coefficient of respective compounds between a hydrophilic (aqueous) and lipophilic (oil) phase, studies were conducted to investigate the relative hydrophobicity of Dienols (4). Using HPLC equipped with an XTerra reverse-phase C18 (RP18) 3.5 μm 4.6×150 mm column (Waters, Milford, Mass.) and Waters 2695 Separations Module, sample retention times were analyzed via a Waters 2487 Dual λ Absorbance Detector monitoring 254 and 270 nm. Mobile phases of HPLC grade methanol (MeOH) and 50 mM KH2PO4 with 1% formic acid in HPLC grade water were utilized at varying ratios (45:55→60:40) and run at 1 mL/min flow rate and 25° C. (Ayouni, et al., Chromatographia 2005, 62, (5-6), 251-255). All samples were first dissolved in DMSO and subsequently diluted with phosphate-buffer saline (PBS) to acquire 1% DMSO solutions and filtered through 0.22 μm PVDF syringe filters prior to autoinjection (20 μL).
Dienol retention factor (k) for each methanol concentration was calculated according to equation one, where tR and t0 are the retention times of the Dienols and dead time, as determined by the injection of sodium nitrate (Ayouni, et al., Chromatographia 2005, 62, (5-6), 251-255), respectfully. From the obtained retention factors the kw, retention factor at 100% buffer, was extrapolated. Hydroxybenzyl alcohol, benzyl alcohol, 2-phenylethanol, methylparaben, anisole, toluene, and thymol were used as reference samples and their retention times acquired. Using reference samples' published Log Po,w values (OECD Nuclear Energy Agency.; Organisation for Economic Co-operation and Development. In OECD guidelines for the testing of chemicals 117, Organisation for Economic Co-Operation and Development: Paris, 2004), a calibration curve was generated in which Log Po,w values were plotted on the y-axis whereas log kw values, obtained from the same method as above, were plotted on the x-axis (Ouimet, et al., Biomacromolecules 2015, 16, 2911-2919). Dienol Log P values were then calculated from the curve using equation 2. kw=(tR−t0)/t0 Equation 1 Log P=slope×log kw+y−intercept Equation 2
Thus, Dienol Log P values were extrapolated from an HPLC method to determine lipophilicity (OECD Nuclear Energy Agency.; Organisation for Economic Co-operation and Development. In OECD guidelines for the testing of chemicals 117, Organisation for Economic Co-Operation and Development: Paris, 2004). Retention factors (k) were calculated according to equation 1 for each concentration of MeOH and kw values extrapolated based off the retention times (Table 1).

3T3 mouse fibroblasts = assay: Cytotoxicity / cytocompatibility (MTS cell viability); assay type: cell-based; conditions: 1000 μM, after 24 h
Method: In vitro cytocompatibility studies were performed by culturing 3T3 mouse fibroblasts in cell media (Dulbecco's Modified Eagle Medium supplemented with 10% Fetal Bovine Serum, 1% Penicillin Streptomycin, and 1% L-glutamate) containing the KA poly(carbonate-esters). Polymers (5a-5c, 6a-6e) and Dienols (4a-4e) were first sterilized under UV at λ=254 nm for 900 s (Spectronics Corporation, Westbury, N.Y.) and subsequently dissolved in DMSO to acquire a stock solution. The stock solution was then serial diluted with cell media. Cells were seeded in a 96-well plate at 2,000 cells/well in […]. Following incubation for 1 h, polymer-containing media in 1% DMSO, at concentrations capable of inhibiting tyrosinase (0.1 mg/mL, 0.01 mg/mL and 0.001 mg/mL) were added to allocated wells in a 96-well plate and incubated at 37° C. DMSO (1%) in cell media was used as a negative control.
Cell viability was determined using CellTiter 96® Aqueous One Solution Cell Proliferation Assay. After 24 h, 48 h, and 72 h incubation with polymers, 20 μL of (3-(4,5-dimethylthiazol-2-yl)-5-(3-carboxymethoxyphenyl)-2-(4-sulfophenyl)-2H-tetrazolium) (MTS) reagent was added to each well and further incubated for 4 h at 37° C. The absorbance was then recorded with a microplate reader (Coulter, Boulevard Brea, Calif.) at 490 nm. […]

Compound	chromatographic logP [1]	Calculated kw [1]	cytocompatibility (3T3 mouse fibroblasts)
O=C(CCCCC(=O)OCc1cc(=O)c(O)co1)OCc1cc(=O)c(O)co1 [Compound 4b, KA (adipic) Dienol]	1.17	2.40	–
O=C(CCC(=O)OCc1cc(=O)c(O)co1)OCc1cc(=O)c(O)co1 [Compound 4a, KA (succinic) Dienol]	0.353	0.806	–
O=c1cc(CO)occ1O [Kojic Acid, 5-Hydroxy-2-(hydroxymethyl)-4-pyrone]	–	–	slightly cytotoxic

More lines, main results first:

chromatographic logP [1]	Calculated kw [1]	Compound	cytocompatibility (3T3 mouse fibroblasts)
0.235	0.688	O=C(COCCOCCOCC(=O)OCc1cc(=O)c(O)co1)OCc1cc(=O)c(O)co1 [Compound 4e, KA (Tetraglycolic) Dienol]	–
2.59	16.0	O=C(CCCCCCCC(=O)OCc1cc(=O)c(O)co1)OCc1cc(=O)c(O)co1 [Compound 4c, KA (Azelaic) Dienol]	–
3.1	31.6	O=C(CCCCCCCCC(=O)OCc1cc(=O)c(O)co1)OCc1cc(=O)c(O)co1 [Compound 4d, KA (sebacic) Dienol]	–
